Assay results from US10500198B2, “Bis-benzylidine piperidone proteasome inhibitor with anticancer activity” (The Johns Hopkins University, priority 2013, dated 2019).

Key:
[1] = test system: TNFα-induced NFκB activation in 293 cells; assay: NFκB/FL reporter assay; assay type: cell-based; conditions: TNFα 10 ng/ml, 7 h
Procedure: 293 cells transiently transfected with either NFκB/FL (firefly luciferase reporter construct under control of an NFκB-driven promoter) or control CMV promoter-driven FL reporter construct were treated with compounds and TNFα (10 ng/ml) for 7 h. Upon the addition of luciferin, bioluminescence was measured in cell lysates using a luminometer. Results can be seen in FIG. 20.
293 cells transiently transfected with either NFκB/FL or control FL reporter genes were treated with compounds and TNFα (10 ng/ml) for 7 h. Upon the addition of luciferin, bioluminescence was measured in cell lysates using a luminometer.

[2] = test system: cancer cells; assay: Antiproliferative activity against cancer cells (design rationale); assay type: cell-based
From the text: We used Chloro and Nitro functional groups as substituent's on the aromatic ring due to their greater electron withdrawing effect at ortho (or) para (or) meta (or) both positions along with different amino acid linkages on bis-benzylidine piperidone moiety. Amino acids were chosen based in their physical characteristics like very hydrophobic (phenylalanine), strongly basic and hydrophilic (lysine), basic and hydrophilic (histidine) and amphiphilic (glycine). Commercially available Fmoc and Boc protected amino acids were used in the synthesis, and they were evaluated for their antiproliferatory activity against cancer cells.
Next we synthesized another set of compounds by converting free amine functionality to its Acetate (Ac), Acrolyl (Acr) and Benzoyl […] analogs as these units are part of many anticancer drugs because of their smaller size and feasibility to form inter molecular hydrogen bonds with proteins.
In the RA195 molecule two amino functionalities of lysine can provide more flexibility to make better analogs.

[3] = test system: polyubiquitinated proteins, p53 and p21 in HeLa cells; assay: Immunoblot of HeLa cell lysates; assay type: cell-based, human
Procedure: FIGS. 1 A-D show percent cell viability of RPMI-8226, ANBL6, and their respective in vitro selected bortezomib-resistant cell lines RPMI-8226-V10R and ANBL6-V10R as a function of 48 hr treatment with the indicated compounds. FIGS. 1 E-H show percent cell viability of indicated MM cell lines as a function of 48 hr treatment with the indicated compounds. […] Actin was used as a loading control. […] In FIG. 9C-E, purified 20S proteasomes were treated for 30 min with or without compounds (1 μM) prior to the addition of the specific fluorogenic substrate for chymotryptic (9C), tryptic (9D) or PGPH (9E) hydrolytic proteasome capacities. Mean±SD fluorescence associated with AMC released from the substrate was measured at 45 min. […] DMSO was added to all samples to a final concentration of 0.1% (upper panel). The effect of DMSO is highlighted by including ubiquitin—AMC (0.5 μM) hydrolysis with 2 nM UCH37 lacking DMSO (orange, bottom panel). In FIG. 9H, purified 19S RP (500 nM) in buffer was treated with corresponding compounds 30 min at 37° C. and AMC cleavage was measured with a fluorometer for 20 min. Ubal was used as a positive control.
Total cellular protein (10-20 μg) from each sample was subjected to SDS-PAGE, transferred to PVDF membranes and analyzed by Western blot. […]

SMILES	TNFα-induced NFκB activation [1]	antiproliferative potency among analogs [2]	levels of p53 and p21 proteins ([3]; 1 μM, 12 h)	poly-ubiquitinated (Poly UB) proteins ([3]; 1 μM, 12 h)	levels of K48-linked polyubiquitinated proteins ([3]; 4 hr)
Cl.NCCCC[C@H](NC(=O)OCC1c2ccccc2-c2ccccc21)C(=O)N1C/C(=C\c2ccc(Cl)c(Cl)c2)C(=O)/C(=C/c2ccc(Cl)c(Cl)c2)C1 [RA195]	inhibited TNFα-induced NFκB activation	higher potency	elevated the levels of p53 and p21 proteins	caused the accumulation of poly-ubiqutinated (Poly UB) proteins	–
Cl.N[C@@H](Cc1ccccc1)C(=O)N1CC(=Cc2ccc(Cl)c(Cl)c2)C(=O)C(=Cc2ccc(Cl)c(Cl)c2)C1 [RA190, 3,5-bis(3,4-dichlorobenzylidene)-1-(S-2-amino-3-phenyl)-piperidin-4-one-HCl salt]	Inhibits TNFα-Induced NFκB Activation	higher potency	–	–	dramatically increased
